In BindingDB's records for doi:10.1016/0960-894X(95)00162-M (1995):

Target: Beta-lactamase TEM (Escherichia coli) (UniProt P62593)
Assay: Kd for TEM-1 beta-lactamase

Beta-lactamase TEM (Escherichia coli), sequence (P62593 whole entry, looked up): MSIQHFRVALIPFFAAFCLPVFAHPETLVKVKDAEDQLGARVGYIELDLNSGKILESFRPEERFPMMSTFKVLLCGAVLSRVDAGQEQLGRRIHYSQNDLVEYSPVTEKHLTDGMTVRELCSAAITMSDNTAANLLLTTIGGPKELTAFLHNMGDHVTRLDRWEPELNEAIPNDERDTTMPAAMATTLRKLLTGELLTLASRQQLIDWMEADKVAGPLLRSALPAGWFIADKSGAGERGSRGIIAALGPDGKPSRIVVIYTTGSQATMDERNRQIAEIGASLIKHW

Molecule `C/C=C1\O[C@@H]2CC(=O)N2[C@H]1C(=O)O` [Sodium; (2R,5R)-3-eth-(Z)-ylidene-7-oxo-4-oxa-1-aza-bicyclo[3.2.0]heptane-2-carboxylate] has a Kd of 800 nM.
